Data taken from ChEMBL document CHEMBL4715760, “Balancing potency, metabolic stability and permeability in pyrrolopyrimidine-based EGFR inhibitors” (Eur J Med Chem, 2016).
In brackets after ≈: the same amount, converted by molar mass.

Legend:
[1] = target: T1, Epidermal growth factor receptor (Homo sapiens, UniProt P00533); test: Inhibition of human EGFR using poly[Glu:Tyr] (4:1) as substrate in presence of [gamma33P]ATP by radiometric HotSpot assay
[2] = target: T1, Epidermal growth factor receptor; conditions: dose 100.0 nM
Description: Inhibition of human EGFR at 100 nM using poly[Glu:Tyr] (4:1) as substrate in presence of [gamma33P]ATP by radiometric HotSpot assay relative to control

BaF3 = test: Antiproliferative activity against mouse Ba/F3 cells expressing EGFR-L858R mutant assessed as inhibition of cell growth incubated for 48 hrs by XTT assay; assay type: functional, cell-based; conditions: BaF3, 48 h
A-431 = test: Antiproliferative activity against human A431 cells; assay type: functional, cell-based
[3] = Efflux ratio of apparent permeability across basolateral to apical side over apical to basolateral side in human Caco2 cells at 10 uM measured for 120 mins by LC-MS/MS analysis
[4] = Apparent permeability from apical to basolateral side in human Caco2 cells at 10 uM measured for 120 mins by LC-MS/MS analysis; conditions: for Papp A→B at 2 h, 10 µM: Caco-2; for Papp: caco-2, 2 h, 10 µM
physchem = conditions: phosphate buffered saline, pH 7.4
[5] = Apparent permeability from basolateral to apical side in human Caco2 cells at 10 uM measured for 120 mins by LC-MS/MS analysis; conditions: for Papp B→A at 2 h, 10 µM: Caco-2; for Papp: caco-2, 2 h, 10 µM
[6] = Metabolic stability in pooled human liver microsomes assessed as Clearance at 3 uM measured up to 45 mins in presence of NADPH by LC-MS/MS analysis; assay type: ADME, Microsome; conditions: for microsomal CLint at 3 µM: pooled liver microsomes, read-out: CLH
[7] = Metabolic stability in pooled human liver microsomes assessed as half life at 3 uM measured up to 45 mins in presence of NADPH by LC-MS/MS analysis; assay type: ADME, Microsome; conditions: for half-life at 3 µM: pooled liver microsomes
[8] = Protein binding in plasma (unknown origin) assessed as unbound fraction at 5 uM by LC-MS/MS based equilibrium dialysis analysis
[9] = target: Voltage-gated inwardly rectifying potassium channel KCNH2 (Homo sapiens, UniProt Q12809); test: Inhibition of human ERG expressed in CHO cells at -80 mV holding potential by IonWorks patch-clamp electrophysiology assay
Sequence of Voltage-gated inwardly rectifying potassium channel KCNH2 (Q12809 whole entry): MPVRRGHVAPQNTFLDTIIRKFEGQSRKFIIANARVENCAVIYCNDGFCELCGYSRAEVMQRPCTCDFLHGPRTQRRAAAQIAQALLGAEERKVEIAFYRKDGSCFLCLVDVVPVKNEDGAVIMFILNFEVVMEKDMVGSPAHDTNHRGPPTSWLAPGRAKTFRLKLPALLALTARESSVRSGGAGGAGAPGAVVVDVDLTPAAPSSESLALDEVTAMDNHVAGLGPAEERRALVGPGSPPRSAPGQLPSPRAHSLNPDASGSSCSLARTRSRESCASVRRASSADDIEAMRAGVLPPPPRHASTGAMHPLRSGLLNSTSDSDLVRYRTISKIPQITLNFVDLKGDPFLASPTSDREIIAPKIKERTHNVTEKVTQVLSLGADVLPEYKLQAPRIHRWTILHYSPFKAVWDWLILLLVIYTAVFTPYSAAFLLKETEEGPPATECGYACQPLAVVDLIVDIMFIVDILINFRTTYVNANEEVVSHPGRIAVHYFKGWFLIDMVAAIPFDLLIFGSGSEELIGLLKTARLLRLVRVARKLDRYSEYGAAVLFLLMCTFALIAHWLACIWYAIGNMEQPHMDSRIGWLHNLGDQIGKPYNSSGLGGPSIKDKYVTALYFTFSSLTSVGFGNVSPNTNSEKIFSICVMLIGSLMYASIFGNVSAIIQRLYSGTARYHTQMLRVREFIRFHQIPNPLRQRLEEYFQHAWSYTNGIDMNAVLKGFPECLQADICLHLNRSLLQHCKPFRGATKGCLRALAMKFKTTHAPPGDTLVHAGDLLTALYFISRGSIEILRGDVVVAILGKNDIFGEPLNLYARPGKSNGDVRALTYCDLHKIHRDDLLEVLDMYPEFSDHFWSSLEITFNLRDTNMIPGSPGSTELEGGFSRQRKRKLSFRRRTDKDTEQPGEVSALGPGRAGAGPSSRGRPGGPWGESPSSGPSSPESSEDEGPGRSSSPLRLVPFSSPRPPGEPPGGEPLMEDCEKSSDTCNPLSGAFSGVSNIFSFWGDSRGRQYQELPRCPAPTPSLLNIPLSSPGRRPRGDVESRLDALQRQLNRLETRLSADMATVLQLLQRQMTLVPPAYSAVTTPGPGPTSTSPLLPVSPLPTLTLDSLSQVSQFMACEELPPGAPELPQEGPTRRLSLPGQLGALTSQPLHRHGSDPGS

[10] = target: T1, Epidermal growth factor receptor; test: Inhibition of EGFR (unknown origin) using Tyr 04 peptide as substrate incubated for 1 hr by Z'-LYTE assay
[11] = target: T1, Epidermal growth factor receptor; conditions: dose 100.0 nM, time 1.0 hrs

T1 sequence (P00533 whole entry): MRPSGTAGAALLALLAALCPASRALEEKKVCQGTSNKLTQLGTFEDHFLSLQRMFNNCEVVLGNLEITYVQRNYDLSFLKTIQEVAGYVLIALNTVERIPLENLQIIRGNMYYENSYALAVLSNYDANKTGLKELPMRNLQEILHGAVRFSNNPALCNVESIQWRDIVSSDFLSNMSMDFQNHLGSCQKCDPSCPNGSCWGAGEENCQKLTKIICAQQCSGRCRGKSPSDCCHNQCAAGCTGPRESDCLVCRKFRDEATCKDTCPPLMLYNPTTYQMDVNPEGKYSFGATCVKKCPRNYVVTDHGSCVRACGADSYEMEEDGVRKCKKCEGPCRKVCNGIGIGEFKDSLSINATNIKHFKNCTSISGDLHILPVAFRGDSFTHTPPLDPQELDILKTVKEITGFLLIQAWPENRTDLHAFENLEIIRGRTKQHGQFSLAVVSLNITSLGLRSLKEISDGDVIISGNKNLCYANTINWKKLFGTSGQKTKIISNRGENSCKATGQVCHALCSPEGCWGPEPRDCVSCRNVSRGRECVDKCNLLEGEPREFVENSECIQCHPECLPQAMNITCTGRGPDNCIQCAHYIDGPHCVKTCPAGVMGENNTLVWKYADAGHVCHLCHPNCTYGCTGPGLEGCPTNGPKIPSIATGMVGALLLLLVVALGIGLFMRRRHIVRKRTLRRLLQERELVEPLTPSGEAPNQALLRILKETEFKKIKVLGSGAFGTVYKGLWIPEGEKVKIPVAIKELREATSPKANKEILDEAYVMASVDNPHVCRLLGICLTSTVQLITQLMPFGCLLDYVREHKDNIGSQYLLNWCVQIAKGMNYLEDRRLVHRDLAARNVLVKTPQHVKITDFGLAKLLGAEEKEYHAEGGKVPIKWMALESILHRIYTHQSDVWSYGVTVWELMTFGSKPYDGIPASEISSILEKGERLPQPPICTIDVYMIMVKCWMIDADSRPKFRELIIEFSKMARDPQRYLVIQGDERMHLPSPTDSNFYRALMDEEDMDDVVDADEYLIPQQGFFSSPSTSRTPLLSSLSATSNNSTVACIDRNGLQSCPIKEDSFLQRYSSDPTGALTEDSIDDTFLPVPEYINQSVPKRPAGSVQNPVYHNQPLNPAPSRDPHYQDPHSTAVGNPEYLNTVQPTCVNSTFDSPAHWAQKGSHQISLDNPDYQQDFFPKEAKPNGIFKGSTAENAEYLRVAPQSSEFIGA

SMILES | IC50 [1] | inhibition [2] | also measured
C[C@@H](Nc1ncnc2[nH]c(-c3ccccc3OC(F)(F)F)cc12)c1ccccc1 | 4.3 nM | 92% | –
OC[C@@H](Nc1ncnc2[nH]c(-c3cccnc3)cc12)c1ccccc1 | 2.2 nM | 92% | –
CN(C)CCNCc1cc(-c2cc3c(N[C@H](CO)c4ccccc4)ncnc3[nH]2)ccc1F | 1.2 nM | 96% | efflux ratio at 2 h, 10 µM ([3]; Caco-2): 5.9; Papp A→B at 2 h, 10 µM [4]: 1.6 ×10⁻⁶ cm/s; solubility kinetic at 2 h (physchem): > 100 µM; Papp B→A at 2 h, 10 µM [5]: 9.6 ×10⁻⁶ cm/s; CLH ([6]; microsomes, 0.75 h, 3 µM): 2.79 µL/min/mg; t1/2 ([7]; microsomes, 0.75 h, 3 µM): 1.72 h
OCc1cc(-c2cc3c(N[C@H](CO)c4ccccc4)ncnc3[nH]2)ccc1F | 1.6 nM | 96% | –
OC[C@@H](Nc1ncnc2[nH]c(-c3ccncc3)cc12)c1ccccc1 | 2 nM | 94% | –
C[C@@H](Nc1ncnc2[nH]c(-c3cccc(C(N)=O)c3)cc12)c1ccccc1 | 1.4 nM | 95% | –
COc1cc(CO)ccc1-c1cc2c(N[C@H](CO)c3ccccc3)ncnc2[nH]1 | – | – | Papp [4]: 2.98 10^-6 cm/s; solubility kinetic at 2 h (physchem): > 100 µM; Papp [5]: 50.84 10^-6 cm/s; microsomal CLint at 3 µM [6]: 12.6 µL/min/mg; half-life at 3 µM [7]: 1.83 h; fraction unbound at 5 µM [8]: 0.08; IC50 [9]: > 25000 nM
NC(=O)Cc1cccc(-c2cc3c(N[C@H](CO)c4ccccc4)ncnc3[nH]2)c1 | 0.7 nM | 100% | –
COc1cc(NC(C)=O)ccc1-c1cc2c(N[C@H](CO)c3ccccc3)ncnc2[nH]1 | 0.8 nM | 98% | –
CS(=O)(=O)Nc1ccc(-c2cc3c(N[C@H](CO)c4ccccc4)ncnc3[nH]2)cc1 | – | – | Papp A→B at 2 h, 10 µM [4]: 0.02 ×10⁻⁶ cm/s; solubility kinetic at 2 h (physchem): > 100 µM; Papp B→A at 2 h, 10 µM [5]: 29.2 ×10⁻⁶ cm/s; microsomal CLint at 3 µM [6]: 10.2 µL/min/mg; half-life at 3 µM [7]: 2.27 h
COc1cc(NS(C)(=O)=O)ccc1-c1cc2c(N[C@H](C)c3ccccc3)ncnc2[nH]1 | 0.7 nM | 100% | –
COC[C@@H](Nc1ncnc2[nH]c(-c3ccccc3OC(F)F)cc12)c1ccccc1 | 1.3 nM | 96% | –
C[C@@H](Nc1ncnc2[nH]c(-c3ccc(S(N)(=O)=O)cc3)cc12)c1ccccc1 | 0.7 nM | 96% | –
CC(=O)Nc1ccc(-c2cc3c(N[C@H](C)c4ccccc4)ncnc3[nH]2)cc1 | 0.7 nM | 97% | –
C[C@@H](Nc1ncnc2[nH]c(-c3ccccc3OC(F)F)cc12)c1ccccc1 | 0.8 nM | 98% | microsomal CLint at 3 µM [6]: 56.2 µL/min/mg; half-life at 3 µM [7]: 0.412 h
COc1cnccc1-c1cc2c(N[C@H](CO)c3ccccc3)ncnc2[nH]1 | 0.6 nM | 97% | –
Cn1c(-c2ccccc2)cc2c(N[C@H](CO)c3ccccc3)ncnc21 | 900 nM | 20% | –
CS(=O)(=O)c1ccc(-c2cc3c(N[C@H](CO)c4ccccc4)ncnc3[nH]2)cc1 | 0.8 nM | 96% | –
C[C@@H](Nc1ncnc2[nH]c(-c3ccc(C(N)=O)cc3)cc12)c1ccccc1 | 0.8 nM | 97% | –
OCc1ccc(-c2cc3c(N[C@H](CO)c4ccccc4)ncnc3[nH]2)cc1 | – | – | IC50 [10]: 0.2 nM; inhibition [11]: 98%; microsomal CLint at 3 µM [6]: 5.21 µL/min/mg; half-life at 3 µM [7]: 4.43 h; fraction unbound at 5 µM [8]: 0.11

Continued by falling IC50 [1], values first:

IC50 [1] | inhibition [2] | SMILES | also measured
0.6 nM | 97% | OCc1ccc(-c2cc3c(N[C@H](CO)c4ccccc4)ncnc3[nH]2)cc1F | IC50 (BaF3): 158 nM; IC50 (A-431): 5800 nM
0.6 nM | 97% | COc1cccc(OC)c1-c1cc2c(N[C@H](C)c3ccccc3)ncnc2[nH]1 | –
0.6 nM | 97% | C[C@@H](Nc1ncnc2[nH]c(-c3ccncc3)cc12)c1ccccc1 | –
0.6 nM | 98% | CC(C)Oc1ccccc1-c1cc2c(N[C@H](C)c3ccccc3)ncnc2[nH]1 | –
0.5 nM | 99% | COc1cc(C(N)=O)ccc1-c1cc2c(N[C@H](CO)c3ccccc3)ncnc2[nH]1 | –
0.5 nM | 98% | COC[C@@H](Nc1ncnc2[nH]c(-c3ccc(CO)cc3OC)cc12)c1ccccc1 | –
0.4 nM | 97% | C[C@@H](Nc1ncnc2[nH]c(-c3ccc(S(C)(=O)=O)cc3)cc12)c1ccccc1 | –
0.4 nM | – | [2H]C([2H])([2H])Oc1ccccc1-c1cc2c(N[C@H](CO)c3ccccc3)ncnc2[nH]1 | –
0.4 nM | 98% | COc1cc(C(N)=O)ccc1-c1cc2c(N[C@H](C)c3ccccc3)ncnc2[nH]1 | –
0.4 nM | 100% | COc1cc(CNCCS(C)(=O)=O)ccc1-c1cc2c(N[C@H](CO)c3ccccc3)ncnc2[nH]1 | –
0.3 nM | 100% | COc1cc(NS(C)(=O)=O)ccc1-c1cc2c(N[C@H](CO)c3ccccc3)ncnc2[nH]1 | –
0.3 nM | 97% | CN(C)CCNCc1ccc(-c2cc3c(N[C@H](CO)c4ccccc4)ncnc3[nH]2)cc1 | –
0.3 nM | 100% | COc1cc(CNCCN(C)C)ccc1-c1cc2c(N[C@H](CO)c3ccccc3)ncnc2[nH]1 | –
0.3 nM | 99% | CCOc1ccccc1-c1cc2c(N[C@H](C)c3ccccc3)ncnc2[nH]1 | –
0.3 nM | 98% | C[C@@H](Nc1ncnc2[nH]c(-c3ccc(NS(C)(=O)=O)cc3)cc12)c1ccccc1 | Ratio ([3]; caco-2, 2 h, 10 µM): 23.7; Papp [4]: 0.03 10^-6 cm/s; solubility kinetic at 2 h (physchem): 37.5 µM (≈ 15.3 µg/mL); Papp [5]: 26.9 10^-6 cm/s; microsomal CLint at 3 µM [6]: 21.2 µL/min/mg; half-life at 3 µM [7]: 1.09 h
0.1 nM | 99% | COc1cc(CNCCN2CCCCC2)ccc1-c1cc2c(N[C@H](CO)c3ccccc3)ncnc2[nH]1 | –
0.1 nM | 99% | COc1cc(CNCCN(C)C)ccc1-c1cc2c(N[C@H](C)c3ccccc3)ncnc2[nH]1 | IC50 (BaF3): 90 nM; IC50 (A-431): 5000 nM
0.1 nM | 100% | CCOc1ccccc1-c1cc2c(N[C@H](CCO)c3ccccc3)ncnc2[nH]1 | IC50 (BaF3): 99 nM; IC50 (A-431): 4900 nM
0.1 nM | 98% | COc1cc(CNCCN2CCNCC2)ccc1-c1cc2c(N[C@H](CO)c3ccccc3)ncnc2[nH]1 | IC50 (BaF3): 396 nM; IC50 (A-431): 6200 nM
0.1 nM | 99% | COc1cc(CN(C)CCN(C)C)ccc1-c1cc2c(N[C@H](CO)c3ccccc3)ncnc2[nH]1 | IC50 (BaF3): 77 nM; IC50 (A-431): > 10000 nM
0.1 nM | 97% | COc1cc(CNCCN2CCOCC2)ccc1-c1cc2c(N[C@H](CO)c3ccccc3)ncnc2[nH]1 | –
